# “And” between values parts separate entries of the source, which are not always exact repeats. Equal entries are not always repeated. Where two headings read alike, the source gives them in different places.
# Columns and labels:
# [1] = system: HbA1C formation (hemoglobin); experiment: Hemoglobin-δ-gluconolactone (δ-Glu) assay, early stage glycation; assay type: biochemical, human
# Method: The Hemoglobin-δ-gluconolactone (δ-Glu) assay was performed as per previously published procedure. All the blood samples were analyzed in triplicates. The percent inhibition of HbA1C formation by the compound was calculated by: (B-C)/(B-A)X100, where A is HbA1C concentration in the baseline control tube not treated with δ-Glu, B is the HbA1C content of the test tube treated with δ-Glu, and C is the HbA1C levels in the sample treated with both δ-Glu and the compound under study.
# [2] = system: HSA glycation by DHA; assay type: biochemical, human; conditions: HSA + 20 mM DHA
# Excerpt: The method of Rahbar et al., was followed with slight modifications for the determination of percent of AGEs formed [26].
# [3] = system: platelets
# Excerpt: Platelet rich plasma was obtained from the supernatant resulting from the centrifugation of blood at 200 g at room temperature.
# [4] = system: GK peptide cross linking in the presence of ribose; experiment: N-acetyl-glycyl-lysine methyl ester (GK peptide)-ribose assay, late glycation products; assay type: biochemical
# Method: GK-peptide-ribose assay was performed with slight modifications from the previously published method. […] The fluorescence of the mixture was read at 340 nm excitation wavelength and 420 nm emission wavelengths using a Shimadzu RF-5301 spectrofluorometer.
# [5] = system: MG-mediated HSA glycation; conditions: 14 days
# Excerpt: The % inhibition of AGEs formation = [1 −(fluorescence of the test group/fluorescence of the control group)] × 100.
# [6] = system: hemoglobin; parameters: method as in PMID 14568007; conditions: cited from earlier work
smiles,measurement,setting,value
"Cc1ncc(CO)c(CN)c1O [PM, pyridoxamine]",inhibition in the formation of HbA1c,[1]; 1 mM,9.1%
same,inhibition in the formation of HbA1c,[1]; 5 mM,20.4%
same,inhibition in the formation of HbA1c,[1]; 10 mM,29.3%
same,inhibition in the formation of HbA1c,[1]; 20 mM,41.1%
same,inhibition of the formation of fluorescent products,"[1]; pre-incubation of fresh blood with 20 mM for 24 h, then δ-gluconolactone",47%
same,inhibition of the formation of fluorescent products,"[1]; simultaneous incubation of whole blood, δ-gluconolactone and 10 mM (so in the source), data not shown",41%
same,inhibition of post-Amadori glycation and AGE formation,[2]; 20 mM,78.4%
same,total lactate dehydrogenase released in the incubation medium,"[3]; human, 0 min, 20 mM",0±0.000%
same,total lactate dehydrogenase released in the incubation medium,"[3]; human, 30 min, 20 mM",1.23±0.235%
same,total lactate dehydrogenase released in the incubation medium,"[3]; human, 60 min, 20 mM",2.11±0.230%
same,total lactate dehydrogenase released in the incubation medium,"[3]; human, 90 min, 20 mM",3.23±0.212%
same,total lactate dehydrogenase released in the incubation medium,"[3]; human, 120 min, 22 mM",3.92±0.683%
same,total lactate dehydrogenase released in the incubation medium,"[3]; human, 120 min, 25 mM",4.14±0.334%
same,inhibition of late glycation end products,[4]; 20 mM,79%
same,inhibition of MG-catalysed HSA glycation,"[5]; human, 10 mM, pH 7.4",54%
same,inhibition of MG-catalysed HSA glycation,"[5]; human, 20 mM, pH 7.4",69%
"CN(C)C(=N)N=C(N)N [MF, metformin]",inhibition in the formation of HbA1c,[1]; 10 µM,11.6%
same,inhibition in the formation of HbA1c,[1]; 100 µM,17.1%
same,inhibition in the formation of HbA1c,[1]; 500 µM,23.3%
same,inhibition in the formation of HbA1c,"[1]; 1000 µM, simultaneous incubation",28.1%
same,inhibition of the formation of fluorescent products,"[1]; pre-incubation of fresh blood with 1000 µM for 24 h, then δ-gluconolactone",30.3%
same,"cytotoxicity (LDH leakage), in words",[3]; 200 µM,not cytotoxic
same,total lactate dehydrogenase released in the incubation medium,"[3]; 200 µM, incubation time 0 min",0±0.000%
same,total lactate dehydrogenase released in the incubation medium,"[3]; 200 µM, incubation time 30 min",1.23±0.232%
same,total lactate dehydrogenase released in the incubation medium,"[3]; 200 µM, incubation time 60 min",2.23±0.331%
same,total lactate dehydrogenase released in the incubation medium,"[3]; 200 µM, incubation time 90 min",3.56±0.237%
same,total lactate dehydrogenase released in the incubation medium,"[3]; 200 µM, incubation time 120 min",4.23% and 4.23±0.352%
same,total lactate dehydrogenase released in the incubation medium,"[3]; 225 µM, incubation time 120 min",4.51±0.312%
same,total lactate dehydrogenase released in the incubation medium,"[3]; 250 µM, incubation time 120 min",5.63±0.563%
same,total lactate dehydrogenase released in the incubation medium,"[3]; 300 µM, incubation time 120 min",6.37±0.349%
same,"cytotoxicity (LDH leakage), in words",[3]; above 200 µM,highly cytotoxic
same,inhibition of late glycation end products,"[4]; 200 µM, 14 day period",66%
"N=C(N)NN [AG, aminoguanidine]",inhibition in the formation of HbA1c,[1]; 10 mM,15%
same,inhibition of fluorescence associated with AGE product formation,[2]; 10 mM,70.1%
same,effect on hemoglobin glycation,[6],no significant effect
same,total lactate dehydrogenase released in the incubation medium,"[3]; 10 mM, incubation time 0 min",0±0.000%
same,total lactate dehydrogenase released in the incubation medium,"[3]; 10 mM, incubation time 30 min",2.86±0.413%
same,total lactate dehydrogenase released in the incubation medium,"[3]; 10 mM, incubation time 60 min",4.23±0.432%
same,total lactate dehydrogenase released in the incubation medium,"[3]; 10 mM, incubation time 90 min",5.81±0.134%
same,total lactate dehydrogenase released in the incubation medium,"[3]; 10 mM, incubation time 120 min",6.63±0.232%
same,inhibition of late glycation products,[4]; 10 mM,60%
same,inhibition of MG-catalysed HSA glycation,"[5]; 10 mM, 40 mM MG, 37°C",49%
